How the values were obtained:
[1] = biological target: Phosphatidylinositol 4,5-bisphosphate 3-kinase catalytic subunit gamma isoform (Homo sapiens) (UniProt P48736); test: Selectivity interaction (KinomeScan (DiscoverX)) EUB0000666a PIK3CG; settings: at 10 µM
[2] = biological target: Protein-tyrosine kinase 2-beta (Homo sapiens) (UniProt Q14289); test: Selectivity interaction (KinomeScan (DiscoverX)) EUB0001079a PTK2B; settings: at 1 µM
[3] = biological target: T1, Serine/threonine-protein kinase RIO1 (Homo sapiens) (UniProt Q9BRS2); test: Selectivity interaction (Kinase panel (DSF assay)) EUB0001558a RIOK1
T1 sequence (whole entry): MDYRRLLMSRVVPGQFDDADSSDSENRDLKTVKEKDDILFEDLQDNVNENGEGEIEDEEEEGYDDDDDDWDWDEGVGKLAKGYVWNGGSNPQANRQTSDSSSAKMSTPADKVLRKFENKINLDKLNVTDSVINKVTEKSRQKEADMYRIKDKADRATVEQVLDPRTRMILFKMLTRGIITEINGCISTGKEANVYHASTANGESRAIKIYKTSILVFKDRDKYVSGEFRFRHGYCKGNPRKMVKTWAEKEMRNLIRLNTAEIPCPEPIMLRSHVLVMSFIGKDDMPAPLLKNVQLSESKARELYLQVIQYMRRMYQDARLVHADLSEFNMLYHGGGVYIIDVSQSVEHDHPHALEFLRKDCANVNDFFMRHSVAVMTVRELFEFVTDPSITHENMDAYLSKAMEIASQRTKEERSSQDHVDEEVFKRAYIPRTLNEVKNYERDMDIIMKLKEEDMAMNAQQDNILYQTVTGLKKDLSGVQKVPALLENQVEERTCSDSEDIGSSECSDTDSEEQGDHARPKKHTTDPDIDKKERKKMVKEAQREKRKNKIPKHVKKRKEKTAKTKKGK

[4] = biological target: Cyclin-dependent kinase 7 (Homo sapiens, UniProt P50613); settings: at 10 µM
Cyclin-dependent kinase 7, sequence (P50613 whole entry): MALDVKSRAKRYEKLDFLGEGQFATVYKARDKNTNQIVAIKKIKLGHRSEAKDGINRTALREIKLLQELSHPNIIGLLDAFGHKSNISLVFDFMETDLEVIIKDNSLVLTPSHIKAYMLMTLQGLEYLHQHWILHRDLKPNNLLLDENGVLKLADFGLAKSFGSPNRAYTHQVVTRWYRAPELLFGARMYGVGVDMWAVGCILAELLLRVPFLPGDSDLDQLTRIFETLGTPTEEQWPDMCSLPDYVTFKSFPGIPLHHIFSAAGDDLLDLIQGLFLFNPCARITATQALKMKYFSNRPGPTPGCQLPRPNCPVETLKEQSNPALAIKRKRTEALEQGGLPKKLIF

[5] = biological target: DNA-dependent protein kinase catalytic subunit (Homo sapiens) (UniProt P78527); test: Selectivity interaction (ActivX KiNativ screen (kinase selectivity in THP-1 cell lysates)) EUB0000639a PRKDC; assay type: subcellular; settings: lysate, at 0.01 µM
[6] = biological target: Serine/threonine-protein kinase PLK1 (Homo sapiens, UniProt P53350); test: Selectivity interaction (Kinase panel (Invitrogen)) EUB0000639a PLK1; settings: at 200 nM
Serine/threonine-protein kinase PLK1, sequence (P53350 whole entry): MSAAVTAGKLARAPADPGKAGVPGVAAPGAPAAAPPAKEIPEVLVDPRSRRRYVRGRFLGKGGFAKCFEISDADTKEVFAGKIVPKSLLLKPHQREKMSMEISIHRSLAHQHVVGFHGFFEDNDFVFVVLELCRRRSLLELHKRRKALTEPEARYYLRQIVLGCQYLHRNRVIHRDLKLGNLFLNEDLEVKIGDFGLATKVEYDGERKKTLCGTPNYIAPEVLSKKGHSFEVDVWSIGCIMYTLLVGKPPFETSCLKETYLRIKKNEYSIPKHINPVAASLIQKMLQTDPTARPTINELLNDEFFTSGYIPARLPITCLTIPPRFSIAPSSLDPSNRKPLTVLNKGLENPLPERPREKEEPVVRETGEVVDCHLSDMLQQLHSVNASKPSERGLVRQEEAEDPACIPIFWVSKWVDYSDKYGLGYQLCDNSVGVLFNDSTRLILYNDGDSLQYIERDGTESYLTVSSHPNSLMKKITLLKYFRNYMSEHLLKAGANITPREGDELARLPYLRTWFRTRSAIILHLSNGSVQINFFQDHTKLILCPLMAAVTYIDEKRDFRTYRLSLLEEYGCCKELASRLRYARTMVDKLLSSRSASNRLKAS

[7] = biological target: T2, Mitogen-activated protein kinase kinase kinase 3 (Homo sapiens) (UniProt Q99759); test: Selectivity interaction (Ambit KINOMEscan and KiNATiv profiling in Jurkat cells) EUB0000090b MAP3K3; assay type: cell-based; settings: at 1 µM
T2 sequence (whole entry): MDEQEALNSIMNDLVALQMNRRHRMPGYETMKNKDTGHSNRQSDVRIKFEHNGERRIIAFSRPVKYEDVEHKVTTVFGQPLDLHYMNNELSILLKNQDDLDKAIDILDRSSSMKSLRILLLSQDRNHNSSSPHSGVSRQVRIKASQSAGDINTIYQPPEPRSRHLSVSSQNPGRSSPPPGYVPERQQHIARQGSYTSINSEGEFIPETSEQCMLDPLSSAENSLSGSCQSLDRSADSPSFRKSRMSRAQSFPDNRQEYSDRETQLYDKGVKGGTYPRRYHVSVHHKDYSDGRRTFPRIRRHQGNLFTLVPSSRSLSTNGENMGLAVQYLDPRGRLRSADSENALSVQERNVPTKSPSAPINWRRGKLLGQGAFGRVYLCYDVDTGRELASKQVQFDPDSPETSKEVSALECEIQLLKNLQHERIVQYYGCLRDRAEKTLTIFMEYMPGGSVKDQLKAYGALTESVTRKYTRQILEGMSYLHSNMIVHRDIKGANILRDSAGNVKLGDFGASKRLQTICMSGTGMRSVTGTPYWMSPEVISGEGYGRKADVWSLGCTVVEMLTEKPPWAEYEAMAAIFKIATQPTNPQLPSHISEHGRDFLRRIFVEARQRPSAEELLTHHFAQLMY

[8] = biological target: Calcium/calmodulin-dependent protein kinase type II subunit gamma (Homo sapiens) (UniProt Q13555); test: Selectivity interaction (ActivX KiNativ screen (ex vivo kinase selectivity in human PBMCs)) EUB0001619a CAMK2G; assay type: cell-based; settings: PBMC, at 1 µM
Calcium/calmodulin-dependent protein kinase type II subunit gamma (Homo sapiens), sequence (Q13555 whole entry): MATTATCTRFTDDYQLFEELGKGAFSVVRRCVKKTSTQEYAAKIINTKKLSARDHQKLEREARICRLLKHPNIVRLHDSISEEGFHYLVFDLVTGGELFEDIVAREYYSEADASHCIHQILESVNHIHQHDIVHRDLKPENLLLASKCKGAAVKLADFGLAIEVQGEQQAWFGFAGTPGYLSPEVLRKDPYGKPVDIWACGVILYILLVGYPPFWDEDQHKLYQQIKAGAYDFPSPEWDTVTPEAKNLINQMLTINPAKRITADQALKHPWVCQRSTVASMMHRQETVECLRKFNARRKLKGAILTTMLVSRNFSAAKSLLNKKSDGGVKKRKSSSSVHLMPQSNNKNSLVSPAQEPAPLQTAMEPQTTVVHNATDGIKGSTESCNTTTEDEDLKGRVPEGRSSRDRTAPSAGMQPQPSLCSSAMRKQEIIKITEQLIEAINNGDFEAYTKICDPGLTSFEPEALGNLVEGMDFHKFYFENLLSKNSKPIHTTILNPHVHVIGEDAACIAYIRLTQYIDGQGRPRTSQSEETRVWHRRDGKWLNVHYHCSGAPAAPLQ

[9] = biological target: Cyclin-dependent kinase-like 1 (Homo sapiens) (UniProt Q00532); test: Selectivity interaction (KinomeScan (DiscoverX)) EUB0001619a CDKL1; settings: at 1 µM
Cyclin-dependent kinase-like 1 (Homo sapiens), sequence (Q00532 whole entry): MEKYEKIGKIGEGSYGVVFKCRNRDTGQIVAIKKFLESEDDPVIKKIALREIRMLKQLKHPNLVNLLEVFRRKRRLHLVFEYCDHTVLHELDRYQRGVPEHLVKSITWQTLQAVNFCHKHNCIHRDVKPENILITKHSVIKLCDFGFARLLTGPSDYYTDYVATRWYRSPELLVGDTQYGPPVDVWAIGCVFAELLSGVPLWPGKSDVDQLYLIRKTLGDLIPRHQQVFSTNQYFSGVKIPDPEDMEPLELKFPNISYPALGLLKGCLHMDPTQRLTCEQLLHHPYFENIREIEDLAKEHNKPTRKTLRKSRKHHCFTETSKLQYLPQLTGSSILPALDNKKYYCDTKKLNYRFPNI

[10] = biological target: Phosphatidylinositol 3-kinase catalytic subunit type 3 (Homo sapiens, UniProt Q8NEB9); test: Selectivity interaction (ActivX KiNativ screen (ex vivo kinase selectivity in human PBMCs)) EUB0001619a PIK3C3; assay type: cell-based; settings: PBMC, at 1 µM
Phosphatidylinositol 3-kinase catalytic subunit type 3, sequence (Q8NEB9 whole entry): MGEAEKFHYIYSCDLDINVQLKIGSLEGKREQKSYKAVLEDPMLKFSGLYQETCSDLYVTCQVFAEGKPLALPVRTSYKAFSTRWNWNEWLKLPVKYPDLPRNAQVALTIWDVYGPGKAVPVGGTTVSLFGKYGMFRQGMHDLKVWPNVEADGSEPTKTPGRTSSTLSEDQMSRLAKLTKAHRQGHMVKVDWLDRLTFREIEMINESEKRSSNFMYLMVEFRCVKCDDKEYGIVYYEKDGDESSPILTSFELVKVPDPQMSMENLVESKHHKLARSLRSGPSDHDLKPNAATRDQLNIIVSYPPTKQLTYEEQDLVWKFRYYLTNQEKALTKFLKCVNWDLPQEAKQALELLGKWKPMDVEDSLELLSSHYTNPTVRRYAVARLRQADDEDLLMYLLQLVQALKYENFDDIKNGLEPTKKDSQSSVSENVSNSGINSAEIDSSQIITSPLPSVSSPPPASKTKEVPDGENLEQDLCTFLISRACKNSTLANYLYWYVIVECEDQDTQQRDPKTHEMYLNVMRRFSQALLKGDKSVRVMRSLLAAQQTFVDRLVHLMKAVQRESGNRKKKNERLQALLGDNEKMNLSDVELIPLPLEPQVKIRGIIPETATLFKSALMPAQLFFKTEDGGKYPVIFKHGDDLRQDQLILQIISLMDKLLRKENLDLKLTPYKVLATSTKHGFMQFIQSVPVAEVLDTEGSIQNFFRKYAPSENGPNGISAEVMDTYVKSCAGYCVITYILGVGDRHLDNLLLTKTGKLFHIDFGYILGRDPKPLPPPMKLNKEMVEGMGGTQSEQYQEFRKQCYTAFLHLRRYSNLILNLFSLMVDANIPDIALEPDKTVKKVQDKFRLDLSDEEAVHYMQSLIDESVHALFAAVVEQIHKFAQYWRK

[11] = biological target: Tyrosine-protein kinase ABL1 (Homo sapiens, UniProt P00519); test: Selectivity interaction (Upstate Kinase Profiler service (Millipore)) EUB0000056c ABL1; settings: at 1 µM
[12] = biological target: Fibroblast growth factor receptor 2 (Homo sapiens) (UniProt P21802); test: Selectivity interaction (KinomeScan (DiscoverX)) EUB0000655a FGFR2; settings: at 10 µM
Fibroblast growth factor receptor 2 (Homo sapiens), sequence (P21802 22-821 limits assumed): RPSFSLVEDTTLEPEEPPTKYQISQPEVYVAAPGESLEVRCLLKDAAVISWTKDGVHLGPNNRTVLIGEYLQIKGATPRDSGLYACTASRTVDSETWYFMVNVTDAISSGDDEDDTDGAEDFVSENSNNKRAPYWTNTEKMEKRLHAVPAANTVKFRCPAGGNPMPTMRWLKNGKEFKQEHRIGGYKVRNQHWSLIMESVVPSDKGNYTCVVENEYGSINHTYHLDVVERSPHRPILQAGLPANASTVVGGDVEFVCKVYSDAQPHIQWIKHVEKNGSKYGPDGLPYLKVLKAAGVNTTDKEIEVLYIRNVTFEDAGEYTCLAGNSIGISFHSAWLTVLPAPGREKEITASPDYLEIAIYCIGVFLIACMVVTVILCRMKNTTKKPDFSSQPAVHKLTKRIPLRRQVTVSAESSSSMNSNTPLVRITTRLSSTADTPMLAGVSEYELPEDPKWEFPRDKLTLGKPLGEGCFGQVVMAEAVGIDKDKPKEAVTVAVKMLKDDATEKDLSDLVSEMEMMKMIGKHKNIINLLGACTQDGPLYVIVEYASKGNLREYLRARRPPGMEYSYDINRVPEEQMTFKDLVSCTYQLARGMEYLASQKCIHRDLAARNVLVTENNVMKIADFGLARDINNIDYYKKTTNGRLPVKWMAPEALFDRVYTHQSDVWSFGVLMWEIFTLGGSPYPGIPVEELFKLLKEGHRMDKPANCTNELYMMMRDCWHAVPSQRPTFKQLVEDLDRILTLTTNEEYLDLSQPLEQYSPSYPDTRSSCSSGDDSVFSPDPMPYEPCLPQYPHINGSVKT

Protein-tyrosine kinase 2-beta (Homo sapiens), sequence (Q14289 whole entry, looked up): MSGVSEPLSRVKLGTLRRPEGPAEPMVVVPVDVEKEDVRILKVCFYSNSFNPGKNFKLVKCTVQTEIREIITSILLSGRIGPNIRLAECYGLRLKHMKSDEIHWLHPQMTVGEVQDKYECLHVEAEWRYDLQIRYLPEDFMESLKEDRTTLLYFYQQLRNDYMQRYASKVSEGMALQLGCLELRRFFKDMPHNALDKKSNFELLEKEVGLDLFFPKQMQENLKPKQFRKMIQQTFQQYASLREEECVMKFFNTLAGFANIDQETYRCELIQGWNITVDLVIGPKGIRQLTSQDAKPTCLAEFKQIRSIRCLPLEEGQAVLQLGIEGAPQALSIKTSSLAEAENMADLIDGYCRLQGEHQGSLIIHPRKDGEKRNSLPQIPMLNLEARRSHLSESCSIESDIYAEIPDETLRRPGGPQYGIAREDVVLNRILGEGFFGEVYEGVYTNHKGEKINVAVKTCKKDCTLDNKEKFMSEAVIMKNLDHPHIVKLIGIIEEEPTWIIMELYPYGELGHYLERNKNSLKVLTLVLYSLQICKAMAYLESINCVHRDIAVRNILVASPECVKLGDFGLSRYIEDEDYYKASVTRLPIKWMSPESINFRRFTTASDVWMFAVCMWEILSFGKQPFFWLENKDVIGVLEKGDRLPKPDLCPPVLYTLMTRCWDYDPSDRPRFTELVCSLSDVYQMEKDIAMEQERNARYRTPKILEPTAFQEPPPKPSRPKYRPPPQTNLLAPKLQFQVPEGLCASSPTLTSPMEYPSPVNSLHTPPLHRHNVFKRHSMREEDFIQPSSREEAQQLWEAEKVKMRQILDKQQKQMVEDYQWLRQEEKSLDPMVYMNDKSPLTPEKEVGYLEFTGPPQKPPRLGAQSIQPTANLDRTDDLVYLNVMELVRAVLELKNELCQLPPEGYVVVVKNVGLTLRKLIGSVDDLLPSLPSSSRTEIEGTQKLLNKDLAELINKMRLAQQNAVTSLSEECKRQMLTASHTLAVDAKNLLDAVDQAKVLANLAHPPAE

Question: With `O=C(NOC[C@H](O)CO)c1ccc(F)c(F)c1Nc1ccc(I)cc1F` as the compound, how does the % of control [1] read?
Answer: 88%

Question: For `Nc1cnc(N2CCc3cc(S(=O)(=O)Nc4c(F)cc(Cl)cc4F)cc(N4CCCC4=O)c32)nc1` [TP-020n], which % of control [2] is on record?
Answer: 100%

Question: For `CC(C)(O)[C@H](F)CN1Cc2cc(NC(=O)c3cnn4cccnc34)c(N3CCOCC3)cc2C1=O`, which dTM [3] is on record?
Answer: -0.3 K

Question: How did the % of control [4] turn out when `CCN(CC)CCCCNc1ncc2cc(-c3cc(OC)cc(OC)c3)c(NC(=O)NC(C)(C)C)nc2n1` was run?
Answer: 100%

Question: `CC[C@@H]1[C@H](F)C(=O)N[C@@H]1COc1nccc2cc(C(N)=O)c(OC)cc12` [ZIMLOVISERTIB] was tested. Which % of inhibition [5] did it give?
Answer: -2.2%

Question: What about the % of inhibition [6] of the same compound?
Answer: 4.41%

Question: For `CN(C)C/C=C/C(=O)Nc1ccc(C(=O)N2CCCC(Nc3ncc(Cl)c(-c4c[nH]c5ccccc45)n3)C2)cc1` (configuration not stated), which % of control [7] is on record?
Answer: 90%

Question: Which % of inhibition [8] does the source give for `N#Cc1cccc(-c2c[nH]c3ncnc(N4CCOCC4)c23)c1` here?
Answer: 10%

Question: And the % of control [9]?
Answer: 100%

Question: What about the % of inhibition [10] of the same compound?
Answer: -17%

Question: For `Cc1ccc(-c2ccc3c(ccc4sc5c(c43)NC[C@@H](C)NC5=O)n2)cn1`, which % of inhibition [11] is on record?
Answer: 18%

Question: For `CN(C)CCOc1ccc(-c2nc(-c3ccncc3)c(-c3ccc4c(c3)CC/C4=N\O)[nH]2)cc1`, which % of control [12] is on record?
Answer: 100%

From ChEMBL document CHEMBL5465560, “Selectivity Literature for EUbOPEN Chemogenomic Library” (2024)
